For series [1], the system named is CHO.DXB11 cells. To be noted: fed once daily, range 0.1% to 0.4% v/v. How it is done: Ethanol cytotoxicity to CHO.DXB11 cells was determined by daily feed dosing. 4 mL of CHO cells at 3 e6/mL cellular density were seeded into 6 well deep plates, mixed at 150 RPM, and fed once daily with ethanol ranging from 0.1% to 0.4% volume to volume (v/v).
The next series relates to CHO.DXB11 derived clone. The following applies: ethanol 0.057% v/v fed daily vs baseline, 12 day fed-batch, mAb1. As for the experimental part: To determine if ethanol altered mAb properties it was incorporated into fully defined and synthetic feed media and fed daily in a fed-batch process using micro—(15 mL working volume) bioreactors.
(§1) Antibody production was performed as described above for mAb 1.
Cell line A is a CHO.DXB11 derived clone producing mAb 1. Cell line B is a different CHO.DXB11 derived clone producing mAb1. The expression cassette is identical between the two cell lines.
(§2) Ethanol was fed daily 0.0% or 0.057% v/v using microscale bioreactors and two different cellular clones producing mAb1. Calculated cumulative cell culture concentration (concentration in vessel at time of cell harvest) of ethanol ranged between 0.0%-0.51% v/v. Bioreactor physical conditions were maintained at a pH of 7.0±0.2, dissolved oxygen at 30% air saturation and a temperature of 35° C. during logarithmic cellular growth phase and shifted to 31° C. during cellular production phase (temperature was shifted one day before max viable cell density was reached). Basal and feed media were fully synthetic and chemically defined containing no animal derived components.

Series [2] deals with CHO.DXB11 cells. The following applies: 12 day fed-batch, prediction profile. The source says: Ethanol was used in design of experiments (DOE) created with custom DOE design using JMP statistical software (World Wide Web.jmp.com/en_us/home.html). A response model was created using standard least squares to determine the significance of response from ethanol supplementation. Potential interactions with other supplemented components were also considered. Ethanol was fed daily between 0.0% and 0.1% using microscale bioreactors. FIG. 9 is a prediction response profile for Titer, Man5%, G0%, Acidic % and Basic % species while the change in response values for each of these is shown depicted in Table 4 below.

Series [3] relates to CHO.DXB11 cells. To be noted: high ethanol 0.144% v/v vs low ethanol 0.072% v/v fed daily, 14 day fed-batch, mAb 1. How it is done: as §1
as §2, with “0.072% (Low Ethanol)” for “0.0%”, “0.144% (High Ethanol) v/v.” for “0.057% v/v using microscale bioreactors and two different cellular clones producing mAb1.”, “0.79%-1.58%” for “0.0%-0.51%”, “oxygen maintained” for “oxygen”, “30% of” for “30%”, “saturation,” for “saturation and a”

Series [4] deals with CHO.DXB11 cells. To be noted: 14 day fed-batch. How it is done:
as §1
Ethanol was fed daily between 0.0% and 0.018% v/v. Calculated cumulative cell culture concentration (concentration in vessel at time of cell harvest) of ethanol ranged between 0.0%-0.2% v/v. Bioreactor physical conditions were maintained at a pH of 7.0±0.2 shifted to 6.8±0.1, dissolved oxygen maintained at 30% air saturation and a constant temperature of 35° C. Basal and feed media were fully synthetic and chemically defined containing no animal derived components.
The same basal media was used in formulation #1 and #2. Feed formulation #1 and #2 were similar in composition containing the same type and amount of amino acids and vitamins. Salt and metal ion type and concentration were slightly varied. Both feeds were fully synthetic and chemically defined containing no animal derived components.

A further series deals with CHO.DG44 derived clone. The following applies: higher ethanol concentrations (0.05%, 0.15% v/v fed daily) vs baseline, 13 day fed-batch, mAb 2. How it is done: Antibody production was performed as described above for mAb 2. This cell line is a CHO.DG44 derived clone producing mAb 2.
Ethanol was fed daily between 0.0% and 0.15% v/v. Calculated cumulative cell culture concentration (concentration in vessel at time of cell harvest) of ethanol ranged between 0.0%-1.35% v/v. Bioreactor physical conditions were maintained at a pH of 7.0±0.1 shifted to 6.8±0.1, dissolved oxygen maintained at 30% air saturation and a constant temperature of 35° C. Basal and feed media were fully synthetic and chemically defined containing no animal derived components.

Series [5] relates to CHO.DXB11 cells. The series can be described thus: Fatty acid cytotoxicity, daily feed dosing. The following applies: solubilized in ethanol, fed once daily, 10 μM to 160 μM. As for the experimental part: Fatty acid cytotoxicity to CHO.DXB11 cells was determined by daily feed dosing. 4 mL of CHO cells at 4 e^6/mL cellular density were seeded into 6 well deep plates, mixed at 150 RPM, and daily fed fatty acids. Fatty acids were solubilized in ethanol and fed once daily to increase well plate concentration from 10 μM to 160 μM.

The mark [6] stands for this setting: Formulation 1, ethanol 0.018% v/v fed daily vs baseline lacking ethanol.
Where [7] appears, read: Formulation 2, ethanol 0.018% v/v fed daily vs baseline lacking ethanol.

Where two headings read alike, the source gives them in different places.

Consider `CCO` [Ethanol, ethanol], for which, in the series with CHO.DXB11 cells [1], the “Daily ethanol feeding above which cell growth rate and cell viability were negatively affected” value is “exceeded 0.3 % v/v”. Besides, in the series on CHO.DXB11 derived clone (both cell lines (A and B)), the “Effect on G1F % glycan species” value is reported as “increased”, the “Effect on G2F % glycan species” value is “increased”, the “Effect on Man5% glycan species” value is listed as “decreased” and the “Effect on relative amount of acidic charge variants” value was “decreased”. For the same molecule, the “Effect on relative percentage of basic charge variants” value with CHO.DXB11 derived clone (both cell lines (A and B)) was “slightly increasing”. Further, in the series on CHO.DXB11 derived clone (cell lines A and B), the “Effect on G0% glycan species” value was “varied with respect to the cell line” and the “Effect on G0F % glycan species” value is “varied with respect to the cell line”. Further, in the series on CHO.DXB11 cells [2] (0.05% v/v ethanol fed daily), the “Change in Acidic %” value is listed as −4.7%, the “Change in Basic %” value was “+1.0%”, the “Change in G0%” value is −0.7% and the “Change in Man5%” value is on record as −1.9%. Besides, in the series on CHO.DXB11 cells [2] (0.05% v/v ethanol fed daily), the “Change in Titer” value is on record as “+2.0%”. Further, in the series with CHO.DXB11 cells [2] (0.1% v/v ethanol fed daily), the “Change in Acidic %” value is −9.3%, the “Change in Basic %” value is reported as “+1.9%”, the “Change in G0%” value was −1.3% and the “Change in Man5%” value is listed as −3.8%. Besides, the “Change in Titer” value in the series on CHO.DXB11 cells [2] (0.1% v/v ethanol fed daily) was “+3.9%”. For the same molecule, in the series with CHO.DXB11 cells [3], the “Effect on G0 glycan species” value is on record as “less”, the “Effect on G1F glycan species” value is given as “greater”, the “Effect on G2F glycan species” value is listed as “greater” and the “Effect on Man5 glycan species” value is given as “less”. Moreover, in the series on CHO.DXB11 cells [3], the “Effect on high molecular weight species” value is recorded as “less” and the “Effect on low molecular weight species” value is recorded as “less”. In the series with CHO.DXB11 cells [4] (setting [6]), the “Effect on G0F glycan species” value is “less”, the “Effect on G0 glycan species” value was “less”, the “Effect on G1F glycan species” value is “increased” and the “Effect on G2F glycan species” value is “increased”. Besides, in the series on CHO.DXB11 cells [4] (setting [6]), the “Effect on Man5 glycan species” value is listed as “increased”, the “Effect on acidic charge variants” value was “less” and the “Effect on basic charge variants” value was “increased”. Further, in the series with CHO.DXB11 cells [4] (setting [7]), the “Effect on G0F glycan species” value was “greater”, the “Effect on G0 glycan species” value is “decreased”, the “Effect on G1F glycan species” value is “decreased” and the “Effect on G2F glycan species” value is listed as “greater”. In the series on CHO.DXB11 cells [4] (setting [7]), the “Effect on Man5 glycan species” value is reported as “decreased” and the “Effect on acidic charge variants” value is “higher”. For the same molecule, in the series on CHO.DG44 derived clone, the “Effect on G0F glycan species” value is reported as “decreased”, the “Effect on G0 glycan species” value is recorded as “increased”, the “Effect on G1F glycan species” value is recorded as “increased” and the “Effect on G2F glycan species” value is on record as “increased”. In the series with CHO.DG44 derived clone, the “Effect on Man5 glycan species” value is “decreased” and the “Effect on high molecular weight species” value is listed as “decreased”.

As for `CC/C=C\C/C=C\C/C=C\CCCCCCCC(=O)O` [linolenic acid], the “Daily feeding concentration at which the supplement became toxic” value with CHO.DXB11 cells [5] is “around 40 μM”.

(Values after patent US10703800B2, “Cell culture medium” (La Jolla Biologics, Inc., priority 2016, dated 2020).)
